Counter-ions that a name gives are not always drawn.
Legend:
rat = assay: Capsaicin test (topical capsaicin allodynia); type: in vivo
Description: Subcutaneous injection of dilute capsaicin into the rat hind paw produces transient but pronounced hyperalgesia, allodynia and pain. This effect may be mitigated by pretreatment with a suitable agent, such as a topical anaesthetic or analgesic, and the extent of this mitigation quantified by evaluation of pain-related behaviors in response to noxious or innocuous stimuli as described above; rats pretreated with a known analgesic display fewer pain and allodynia related behaviors than controls. Compounds may be evaluated for their efficacy as potential analgesics in this manner as well.
Male Lewis rats weighing between 180 and 250 grams are used. The right hind paw is dipped into vehicle (100% acetone) or compound in vehicle for 30 seconds and then allowed to air-dry for 30 sec. To prevent the animal from licking the compound off the paw, the paw is wiped twice with a wet paper towel. At 15 min after application of vehicle or compound, 0.1 mg in 10 μL capsaicin is injected into right hind paw. Measurement of allodynia is performed 0.5 to 1 hour after capsaicin injection.
One procedure for quantifying allodynia measures the rat behavioral response to presentation of von Frey filaments of increasing diameter. Each rat is placed in a small, clear cage on an elevated screen. Beginning with 4.31, the von Frey hair is presented perpendicularly to the right mid-plantar hind paw with sufficient force to cause slight buckling, for 6-8 seconds. If presentation lifts the hind paw it is disregarded, as it changes the nature of the stimulus. A positive response is noted if the paw is sharply withdrawn upon onset or offset of stimulus. Ambulation is considered an ambiguous response and the presentation is repeated. Stimuli are presented in a consecutive fashion. A positive response would call for the presentation of the immediately weaker weight filament next; likewise, no response would call for the immediately stronger. Presentations continue until a series of six consecutive responses from the first change is logged. The next rat is then tested. This procedure is standard in the art for the measurement of allodynia, but any other method known in the art which provides adequate sensitivity and reproducibility may be substituted.

hiNOS = biological target: T1, hiNOS (Homo sapiens, UniProt P35228); assay: DAN assay, hiNOS expressed in transiently transfected HEK293 cells; type: cell-based; details: HEK293 cells transiently transfected with hiNOS
T1 construct: expressed in transfected cells; host or cells: HEK293
Method in brief: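 Human iNOS, nNOS or eNOS transiently expressed in HEK293 cells, with nNOS and eNOS needing added cofactors for activity. NO production is read as nitrite by fluorometry: 2,3-diaminonaphthalene forms fluorescent […], detecting 10 nM to 10 μM nitrite.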

[1] = at 0.5 hr after capsaicin injection
[2] = at 1 hr after capsaicin injection

| EC50 (hiNOS) [nM] | SMILES | Topical Capsaicin Allodynia (rat; [1]) | Topical Capsaicin Allodynia (rat; [2]) |
| --- | --- | --- | --- |
| < 1000 | Cc1cc(CNC(=O)NCCc2ccc3c(c2)OCO3)nc(-n2ccnc2)n1 [Example 13, 1-(2-Benzo[1,3]dioxol-5-yl-ethyl)-3-(2-imidazol-1-yl-6-methyl-pyrimidin-4-ylmethyl)-urea] | − at 0.5 hr ((−) = <15% inhibition) | + at 1 hr ((+) = >15% inhibition) |
| < 1000 | c1cn(-c2nsc(N(CCCNCc3ccc4c(c3)OCO4)Cc3nccs3)n2)cn1 [Example 49, N′-Benzo[1,3]dioxol-5-ylmethyl-N-(3-imidazol-1-yl-[1,2,4]thiadiazol-5-yl)-N-thiazol-2-ylmethyl-propane-1,3-diamine] | + at 0.5 hr ((+) = >15% inhibition) | + at 1 hr ((+) = >15% inhibition) |
| > 50000 | CN(CCCNCc1ccccc1)c1nc(-n2ccnc2)ns1 [Example 12, N′-Benzyl-N-(3-imidazol-1-yl-[1,2,4]thiadiazol-5-yl)-N-methyl-propane-1,3-diamine] | − at 0.5 hr ((−) = <15% inhibition) | − at 1 hr ((−) = <15% inhibition) |
| < 1000 | Cc1cc(C(C)NCCNCc2ccc3c(c2)OCO3)nc(-n2ccnc2)n1 (stereo not shown) [Example 38, N-Benzo[1,3]dioxol-5-ylmethyl-N′-[1-(2-imidazol-1-yl-6-methyl-pyrimidin-4-yl)-ethyl]-ethane-1,2-diamine] | + at 0.5 hr ((+) = >15% inhibition) | + at 1 hr ((+) = >15% inhibition) |
| – | c1csc(CN(CCCNCc2ccc3c(c2)OCO3)c2nc(-n3ccnc3)ns2)c1 [Example 50, N′-Benzo[1,3]dioxol-5-ylmethyl-N-(3-imidazol-1-yl-[1,2,4]thiadiazol-5-yl)-N-thiophen-2-ylmethyl-propane-1,3-diamine] | + at 0.5 hr ((+) = >15% inhibition) | + at 1 hr ((+) = >15% inhibition) |
| < 1000 | O=C(NCCc1ccc2c(c1)OCO2)[C@H]1C[C@@H](O)CN1c1nc(-n2ccnc2)ns1 [Example 28, (2R,4R)-4-Hydroxy-1-(3-imidazol-1-yl-[1,2,4]thiadiazol-5-yl)-pyrrolidine-2-carboxylic acid (2-benzo[1,3]dioxol-5-yl-ethyl)-amide] | + at 0.5 hr ((+) = >15% inhibition) | + at 1 hr ((+) = >15% inhibition) |
| < 1000 | CN(CCCN(CC(N)=O)c1nc(-n2ccnc2)ns1)Cc1ccc2c(c1)OCO2 [Example 59, 2-[[3-(Benzo[1,3]dioxol-5-ylmethyl-methyl-amino)-propyl]-(3-imidazol-1-yl-[1,2,4]thiadiazol-5-yl)-amino]-acetamide] | + at 0.5 hr ((+) = >15% inhibition) | + at 1 hr ((+) = >15% inhibition) |
| < 1000 | O=C(NCCc1ccc2c(c1)OCO2)[C@H]1CCCN1c1nc(-n2ccnc2)ns1 [Example 29, (R)-1-(3-Imidazol-1-yl-[1,2,4]thiadiazol-5-yl)pyrrolidine-2-carboxylic acid (2-benzo[1,3]dioxol-5-yl-ethyl)-amide] | − at 0.5 hr ((−) = <15% inhibition) | + at 1 hr ((+) = >15% inhibition) |
| < 1000 | Oc1ccc(CN(CCCNCc2ccc3c(c2)OCO3)c2nc(-n3ccnc3)ns2)cc1 [Example 103, 4-{[{3-[(Benzo[1,3]dioxol-5-ylmethyl)-amino]-propyl}-(3-imidazol-1-yl-[1,2,4]thiadiazol-5-yl)-amino]-methyl}-phenol] | – | – |
| < 1000 | CCOC(=O)CC(NCCNCc1ccc2c(c1)OCO2)c1cc(C)nc(-n2ccnc2)n1 (stereo not shown) [Example 135, Benzo[1,3]dioxol-5-ylmethyl-{2-[2-ethoxycarbonyl-1-(2-imidazol-1-yl-6-methyl-pyrimidin-4-yl)-ethylamino]-ethyl}-ammonium trifluoroacetate] | – | – |
| < 1000 | NCCCN(Cc1nccs1)c1nc(-n2ccnc2)ns1 [Example 52, N′-(3-Imidazol-1-yl-[1,2,4]thiadiazol-5-yl)-N′-thiazol-2-ylmethyl-propane-1,3-diamine] | – | – |
| < 1000 | Cc1cc(C(C)(C)CCC(=O)NCc2ccc3c(c2)OCO3)nc(-n2ccnc2)n1 [Example 75, 4-(2-(1H-Imidazol-1-yl)-6-methylpyrimidin-4-yl)-N-(benzo[d][1,3]dioxol-5-ylmethyl)-4-methylpentanamide] | – | – |
| < 1000 | Cc1cc(C(C)NCCNCc2ccc3c(c2)OCCO3)nc(-n2ccnc2)n1 (stereo not shown) [Example 45, N-(2,3-Dihydro-benzo[1,4]dioxin-6-ylmethyl)-N′-[1-(2-imidazol-1-yl-6-methyl-pyrimidin-4-yl)-ethyl]-ethane-1,2-diamine] | – | – |
| < 1000 | CNC(=O)C1CCN(CCNCc2ccc3c(c2)OCO3)C1c1cc(C)nc(-n2ccnc2)n1 (stereo not shown) [Example 137, 2-(2-(1H-Imidazol-1-yl)-6-methylpyrimidin-4-yl)-1-(2-(benzo[d][1,3]dioxol-5-ylmethylamino)ethyl)-N-methylpyrrolidine-3-carboxamide] | – | – |
| < 1000 | Cc1cc(C(C)NCCN(C)Cc2ccc3c(c2)OCO3)nc(-n2ccnc2)n1 (single isomer, unassigned) [Example 131, N-Benzo[1,3]dioxol-5-ylmethyl-N-[1-(2-imidazol-1-yl-6-methyl-pyrimidin-4-yl)-ethyl]-N-methyl-ethane-1,2-diamine] | – | – |
| > 50000 | CN(CCCNCc1cccs1)c1nc(-n2ccnc2)ns1 [Example 20, N-(3-Imidazol-1-yl-[1,2,4]thiadiazol-5-yl)-N-methyl-N′-thiophen-2-ylmethyl-propane-1,3-diamine] | – | – |
| < 1000 | Cc1cc(C(C)NCCNC(C)c2ccc3c(c2)OCO3)nc(-n2ccnc2)n1 (stereo not shown) [Example 44, N-(1-Benzo[1,3]dioxol-5-yl-ethyl)-N′-[1-(2-imidazol-1-yl-6-methyl-pyrimidin-4-yl)-ethyl]-ethane-1,2-diamine] | – | – |
| < 1000 | CN(C)C(=O)CN(CCCNCc1ccc2c(c1)OCO2)c1nc(-n2ccnc2)ns1 [Example 57, 2-[{3-[(Benzo[1,3]dioxol-5-ylmethyl)-amino]-propyl}-(3-imidazol-1-yl-[1,2,4]thiadiazol-5-yl)-amino]-N,N-dimethyl-acetamide] | – | – |
| < 1000 | Cc1cc(C2CCC(=O)N2CCNCc2ccc3c(c2)OCO3)nc(-n2ccnc2)n1 (stereo not shown) [Example 138, 1-{2-[(Benzo[1,3]dioxol-5-ylmethyl)-amino]-ethyl}-5-(2-imidazol-1-yl-6-methyl-pyrimidin-4-yl)-pyrrolidin-2-one hydrochloride] | – | – |
| > 50000 | Cc1cc(CNC(=O)C2CCCN2Cc2ccccn2)nc(-n2ccnc2)n1 (stereo not shown) [Example 109, 1-Pyridin-2-ylmethyl-pyrrolidine-2-carboxylic acid (2-imidazol-1-yl-6-methyl-pyrimidin-4-ylmethyl)-amide] | – | – |
| > 50000 | CN(CCCNS(=O)(=O)c1ccc(OC(F)(F)F)cc1)c1nc(-n2ccnc2)ns1 [Example 34, N-{3-[(3-Imidazol-1-yl-[1,2,4]thiadiazol-5-yl)-methyl-amino]-propyl}-4-trifluoromethoxy-benzenesulfonamide] | – | – |
| > 50000 | Cc1cc(CNC(=O)C2CCCN2Cc2ccc(OC(C)C)cc2)nc(-n2ccnc2)n1 (stereo not shown) [Example 115, 1-(4-Isopropoxy-benzyl)-pyrrolidine-2-carboxylic acid (2-imidazol-1-yl-6-methyl-pyrimidin-4-ylmethyl)-amide] | – | – |
| < 50000 | COc1ccc(CNCCNC(C)c2cc(C)nc(-n3ccnc3)n2)cc1O (stereo not shown) [Example 100, 5-({2-[1-(2-Imidazol-1-yl-6-methyl-pyrimidin-4-yl)-ethylamino]-ethylamino}-methyl)-2-methoxy-phenol] | – | – |
| < 1000 | O=C(NCCc1ccc2c(c1)OCCO2)[C@H]1C[C@@H](O)CN1c1nc(-n2ccnc2)ns1 [Example 123, (2R,4R)-4-Hydroxy-1-(3-imidazol-1-yl-[1,2,4]thiadiazol-5-yl)-pyrrolidine-2-carboxylic acid [2-(2,3-dihydro-benzo[1,4]dioxin-6-yl)-ethyl]-amide] | – | – |
| < 1000 | COc1ccc(CNCCCN(C)c2nc(-n3ccnc3)ns2)c(OC)c1 [Example 17, N′-(2,4-Dimethoxy-benzyl)-N-(3-imidazol-1-yl-[1,2,4]thiadiazol-5-yl)-N-methyl-propane-1,3-diamine] | – | – |
